These results are taken from patent US12421211B2, “Heterocyclic compounds” (Hoffmann-La Roche Inc., priority 2021, dated 2025).

Structures can show the parent of a compound that is named as a salt.

For one assay, the system named is Acinetobacter baumannii ATCC17961. Description: Antimicrobial susceptibility testing: 90% growth inhibitory concentration (IC90) determination. It is filed as cell-based. To be noted: 90% growth inhibitory concentration, Acinetobacter baumannii ATCC17961, Iso-Sensitest broth, OD 600 nm over 16 h; formate; read-out: ATCC 17961 IC90. The gist of the method: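 Growth inhibition derived in log phase from OD600 kinetics (every 20 minutes, 16h, 35±2° C) of ATCC17961 in Iso-Sensitest medium, inoculum ~5×10^5 CFU/ml. Compounds tested as twofold series, 10 points (e.g. 50 to 0.097 μM final); IC90 and IC50 reported.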
As usually defined, the IC90 is the concentration needed for an effect of 90%. On to `COCCn1cc(-c2ccc(-c3cnc(C(=O)Nc4ccc(C(=O)N5CCN(C(=O)C6CC[N+](C)(CC(N)=O)CC6)CC5)c(Cl)c4)n3C)c(F)c2F)c(C)n1` (centres unmarked) [Example B3, N-[4-[4-[1-(2-amino-2-oxo-ethyl)-1-methyl-piperidin-1-ium-4-carbonyl]piperazine-1-carbonyl]-3-chloro-phenyl]-5-[2,3-difluoro-4-[1-(2-methoxyethyl)-3-methyl-pyrazol-4-yl]phenyl]-1-methyl-imidazole-2-carboxamide; formate], for which the IC90 turned out to be 130 nM.

The same assay, now with this note: Acinetobacter baumannii, ATCC17961, 16 h, 90% growth inhibitory concentration, Acinetobacter baumannii ATCC17961, Iso-Sensitest broth, OD 600 nm over 16 h; read-out: ATCC 17961 IC90.
For the molecule `COCCn1ncc(-c2ccc(-c3cnc(C(=O)Nc4ccc(C(=O)N5CCN(C(=O)CCC[N+](CCN(C)C)(CCN(C)C)CC(=O)O)CC5)c(Cl)c4)n3C)c(F)c2F)c1C` [Example P4, carboxymethyl-[4-[4-[2-chloro-4-[[5-[2,3-difluoro-4-[1-(2-methoxyethyl)-5-methyl-pyrazol-4-yl]phenyl]-1-methyl-imidazole-2-carbonyl]amino]benzoyl]piperazin-1-yl]-4-oxo-butyl]-bis[2-(dimethylamino)ethyl]ammonium; 2,2,2-trifluoroacetate], the IC90 worked out at 657 nM. Turning to `COCCn1ncc(-c2ccc(-c3cnc(C(=O)Nc4ccc(C(=O)N5CCC(C(=O)NCCCc6cc[n+](CC(=O)O)c(CCCN)c6)CC5)c(Cl)c4)n3C)c(F)c2F)c1C` [Example O12, 2-[2-(3-aminopropyl)-4-[3-[[1-[2-chloro-4-[[5-[2,3-difluoro-4-[1-(2-methoxyethyl)-5-methyl-pyrazol-4-yl]phenyl]-1-methyl-imidazole-2-carbonyl]amino]benzoyl]isonipecotoyl]amino]-propyl]pyridin-1-ium-1-yl]acetic acid; formate], the IC90 stood at 339 nM. On to `COCCn1ncc(-c2ccc(-c3cnc(C(=O)Nc4ccc(C(=O)N5CCN(C(=O)C6CC[N+](C)(C)CC6)CC5)c(Cl)c4)n3C)c(C)c2F)c1C` [Example F3, N-[3-chloro-4-[4-(1,1-dimethylpiperidin-1-ium-4-carbonyl)piperazine-1-carbonyl]phenyl]-5-[3-fluoro-4-[1-(2-methoxyethyl)-5-methyl-pyrazol-4-yl]-2-methyl-phenyl]-1-methyl-imidazole-2-carboxamide; formate], for which the IC90 was determined as 120 nM. The same measure, in the same setting: as for `Cn1c(-c2ccc(-c3cn(CCS(C)(=O)=O)nc3C(F)(F)F)c(F)c2F)cnc1C(=O)Nc1ccc(C(=O)N2CCN(C(=O)C3CC[N+](C)(C)CC3)CC2)c(Cl)c1` [Example F32, N-[3-chloro-4-[4-(1,1-dimethylpiperidin-1-ium-4-carbonyl)piperazine-1-carbonyl]phenyl]-5-[2,3-difluoro-4-[1-(2-methylsulfonylethyl)-3-(trifluoro-methyl)pyrazol-4-yl]phenyl]-1-methyl-imidazole-2-carboxamide; formate], the figure is 580 nM; as for `Cc1c(-c2ccc(-c3cnc(C(=O)Nc4ccc(C(=O)N5CCN(C(=O)[C@@H]6C[C@@H](O)C[N+]6(C)C)CC5)c(Cl)c4)n3C)c(F)c2F)cnn1CCOC(F)F` [Example F10, N-[3-chloro-4-[4-[(2S,4R)-4-hydroxy-1,1-dimethyl-pyrrolidin-1-ium-2-carbonyl]piperazine-1-carbonyl]phenyl]-5-[4-[1-[2-(difluoro-methoxy)ethyl]-5-methyl-pyrazol-4-yl]-2,3-difluoro-phenyl]-1-methyl-imidazole-2-carboxamide; formate], 75 nM. Consider `Cn1c(-c2ccc(-c3cnn4c3CCC4)c(F)c2F)cnc1C(=O)Nc1ccc(C(=O)N2CCN(C(=O)C3CC[N+](C)(C)CC3)CC2)c(Cl)c1` [Example F28, N-[3-chloro-4-[4-(1,1-dimethylpiperidin-1-ium-4-carbonyl)piperazine-1-carbonyl]phenyl]-5-[4-(5,6-dihydro-4H-pyrrolo[1,2-b]pyrazol-3-yl)-2,3-difluoro-phenyl]-1-methyl-imidazole-2-carboxamide; formate], for which the IC90 was 270 nM. Turning to `COCCn1ncc(-c2ccc(-c3cnc(C(=O)Nc4ccc(C(=O)N5CCN(C(=O)[C@@H]6CCC(=O)N6)CC5)c(Cl)c4)n3C)c(F)c2F)c1C` [Example D26, N-[3-chloro-4-[4-[(2S)-5-oxopyrrolidine-2-carbonyl]piperazine-1-carbonyl]phenyl]-5-[2,3-difluoro-4-[1-(2-methoxyethyl)-5-methyl-pyrazol-4-yl]phenyl]-1-methyl-imidazole-2-carboxamide; 2,2,2-trifluoroacetic acid], the IC90 amounted to 190 nM. As for `COCCn1ncc(-c2ccc(-c3cnc(C(=O)Nc4ccc(C(=O)N[C@H]5[C@@H]6CN(C(=O)[C@@H]7C[C@@H](O)C[N+]7(C)C)C[C@@H]65)c(Cl)c4)n3C)c(F)c2F)c1C` [Example D40, N-[3-chloro-4-[[(1S,5R)-3-[(2S,4R)-4-hydroxy-1,1-dimethyl-pyrrolidin-1-ium-2-carbonyl]-3-azabicyclo[3.10]hexan-6-yl]carbamoyl]phenyl]-5-[2,3-difluoro-4-[1-(2-methoxyethyl)-3,5-dimethyl-pyrazol-4-yl]phenyl]-1-methyl-imidazole-2-carboxamide; formate], the IC90 was determined as 77 nM. Consider `COCCCn1cc(-c2ccc(-c3cnc(C(=O)Nc4ccc(C(=O)N5CCN(C(=O)[C@@H]6C[C@@H](O)C[N+]6(C)C)CC5)c(Cl)c4)n3C)c(F)c2F)c(C)n1` [Example D11, N-[3-chloro-4-[4-[(2S,4R)-4-hydroxy-1,1-dimethyl-pyrrolidin-1-ium-2-carbonyl]piperazine-1-carbonyl]phenyl]-5-[2,3-difluoro-4-[1-(3-methoxypropyl)-3-methyl-pyrazol-4-yl]phenyl]-1-methyl-imidazole-2-carboxamide; formate], for which the concentration for an effect of 90% (IC90) was 270 nM. On the same count and under the same terms, as for `Cc1nn(CC(=O)Nc2cccnc2)cc1-c1ccc(-c2cnc(C(=O)Nc3ccc(C(=O)N4CCN(C(=O)C5CC[N+](C)(C)CC5)CC4)c(Cl)c3)n2C)c(F)c1F` [Example G27, N-[3-chloro-4-[4-(1,1-dimethylpiperidin-1-ium-4-carbonyl)piperazine-1-carbonyl]phenyl]-5-[2,3-difluoro-4-[3-pyridylamino)ethyl] pyrazol-4-yl]phenyl]-1-methyl-imidazole-2-carboxamide; formate], the figure is 120 nM; as for `COCCn1ncc(-c2ccc(-c3cnc(C(=O)Nc4ccc(C(=O)N5CCN(C(=O)CCC[N+](C)(CCCN)CCCN)CC5)c(Cl)c4)n3C)c(F)c2F)c1C` [Example P3, bis(3-aminopropyl)-[4-[4-[2-chloro-4-[[5-[2,3-difluoro-4-[1-(2-methoxyethyl)-5-methyl-pyrazol-4-yl]phenyl]-1-methyl-imidazole-2-carbonyl]amino]benzoyl]piperazin-1-yl]-4-oxo-butyl]-methyl-ammonium; formate], 293 nM; as for `CNC(=O)Cn1cc(-c2ccc(-c3cnc(C(=O)Nc4ccc(C(=O)N5CCN(C(=O)[C@@H]6C[C@@H](O)C[N+]6(C)C)CC5)c(Cl)c4)n3C)c(F)c2F)c(C)n1` [Example F5, N-[3-chloro-4-[4-[(2S,4R)-4-hydroxy-1,1-dimethyl-pyrrolidin-1-ium-2-carbonyl]piperazine-1-carbonyl]phenyl]-5-[2,3-difluoro-4-[3-methyl-1-[2-(methylamino)-2-oxo-ethyl]pyrazol-4-yl]phenyl]-1-methyl-imidazole-2-carboxamide; formate], 280 nM. As to `Cc1nn(CC(=O)Nc2cnn(C)c2)cc1-c1ccc(-c2cnc(C(=O)Nc3ccc(C(=O)N4CCN(C(=O)C5CC[N+](C)(C)CC5)CC4)c(Cl)c3)n2C)c(F)c1F` [Example G12, N-[3-chloro-4-[4-(1,1-dimethylpiperidin-1-ium-4-carbonyl)piperazine-1-carbonyl]phenyl]-5-[2,3-difluoro-4-[3-methyl-1-[2-[(1-methylpyrazol-4-yl)amino]-2-oxo-ethyl]pyrazol-4-yl]phenyl]-1-methyl-imidazole-2-carboxamide; formate], the IC90 was 450 nM.

The same assay, now with this note: Acinetobacter baumannii, ATCC17961, 16 h, read-out: ATCC 17961 IC90.
With `COCCn1cc(-c2ccc(-c3cnc(C(=O)Nc4ccc(C(=O)N5CCN(C(=O)C6CC[N+](C)(C)CC6)CC5)c(Cl)c4)n3C)c(F)c2F)c(C)n1` [Example A1, N-[3-chloro-4-[4-(1,1-dimethylpiperidin-1-ium-4-carbonyl)piperazine-1-carbonyl]phenyl]-5-[2,3-difluoro-4-[l-(2-methoxyethyl)-3-methyl-pyrazol-4-yl]phenyl]-1-methyl-imidazole-2-carboxamide; formate], the IC90 was 120 nM.

Regarding `Cc1n[nH]cc1-c1ccc(-c2cnc(C(=O)Nc3ccc(C(=O)N4CCN(C(=O)[C@@H]5C[C@@H](O)C[N+]5(C)CCO)CC4)c(Cl)c3)n2C)c(F)c1F` (stereo partly drawn) [Example B36, N-[3-chloro-4-[4-[(2S,4R)-4-hydroxy-1-(2-hydroxyethyl)-1-methyl-pyrrolidin-1-ium-2-carbonyl]piperazine-1-carbonyl]phenyl]-5-[2,3-difluoro-4-(3-methyl-1H-pyrazol-4-yl)phenyl]-1-methyl-imidazole-2-carboxamide; 2,2,2-trifluoroacetate], the IC90 was 110 nM. On the same count and under the same terms, the result for `Cc1c(-c2cnc(C(=O)Nc3ccc(C(=O)N4CCN(C(=O)C5CC[N+](CC(=O)O)(CC6CNC6)CC5)CC4)c(Cl)c3)n2C)ccc(-c2cnn(CCOC(F)F)c2C)c1F` (centres unmarked) [Example N2, 2-[1-(azetidin-3-ylmethyl)-4-[4-[2-chloro-4-[[5-[4-[1-[2-(difluoromethoxy)ethyl]-5-methyl-pyrazol-4-yl]-3-fluoro-2-methyl-phenyl]-1-methyl-imidazole-2-carbonyl]amino]benzoyl]piperazine-1-carbonyl]piperidin-1-ium-1-yl]acetic acid; formate] reads 183 nM.
